The test system of data set [1] is ambulant boys aged 4 to <7 years with DMD. Description: VISION-DMD Phase 2b study VBP15-004, efficacy at 24 weeks. It counts as in vivo, human. How it is done:
(§1) The second period of 24 weeks, where all participants receive vamorolone treatment on either of the two dose levels, will continue to capture additional longer-term safety and tolerability data.
The study met its primary endpoint of superiority in the change of time to stand from supine positioning to standing (TTSTAND) velocity with vamorolone 6 mg/kg/day versus placebo (p=0.002) with a treatment difference of 0.06 [95% CI: 0.02-0.10] rises/second from baseline. […] Any number p<0.05 is considered significant.

For data set [2] the test system is unchanged. Description: VBP15-004 adverse events. Further details: species or system human. As to conditions: in vivo.
From the text: as §1
The study completion rate at 24 weeks was 94% (or 114 of 121 participants).
Pre-specified AESIs typically for corticosteroids were higher in prednisone-treated subjects than vamorolone-treated subjects after 24 weeks of treatment (Table 10).

Data set [3] deals with participants with DMD. Briefly: VBP15-LTE Month 24 PODCI and skeletal maturation by wrist x-ray. Particulars: for Bone Age difference to Chronologic Age, mean (SD): LTE Month 24, wrist x-ray. It is filed as in vivo, human. The source says:
In addition, 39/41 LTE participants had wrist x-ray at Month 24; the mean bone age to chronologic age difference was −1.1 (p<0.001, CI −1.5, −0.7), indicating possible skeletal maturation delay (Table 7).
PODCI is the Pediatrics Outcomes Data Collection Instrument (musculoskeletal disorders). The PODCI is a disease-specific questionnaire developed by the American Academy of Orthopedic Surgeons to measure general health and problems related to bone and muscle conditions in children. A significant increase in mean PODCI upper extremity and physical function standardized score was observed from LTE baseline to Month 24 (7.95±12.54, CI 1.003, 14.897, p=0.0278, n=15) for the combined 2.0 and 6.0 mg/kg/day initial dose group. At the same time, a non-significant decrease in mean PODCI transfer and basic mobility standardized score was observed (−4.38±22.68, CI −16.471, 7.703, p=0.451, n=16) (Table 7).

Where [4] appears, read: LTE baseline to Month 24, combined 2.0 and 6.0 mg/kg/day initial dose group.
The mark [5] stands for this setting: assigned to high dose (2.0 and 6.0 mg/kg/day) at start of the study.

This note sets out measurements from patent US20240139210A1, “TREATMENT OF NF-KB-MEDIATED DISEASE” (ReveraGen BioPharma, Inc., priority 2020, published 2024).

Regarding `C[C@@H]1C[C@H]2[C@@H]3CCC4=CC(=O)C=C[C@]4(C)C3=CC[C@]2(C)[C@@]1(O)C(=O)CO` [Vamorolone, 17α,21-dihydroxy-16α-methylpregna-1,4,9(11)-triene-3,20-dione], in data set [1] (vamorolone 6 mg/kg/day), the “TTSTAND after treatment (baseline 6.0 seconds)” value came to 4.6 s and the “TTSTAND velocity, treatment difference versus placebo in change from baseline” value is 0.06 rises/second. Also, the “difference between vamorolone and prednisone across TTSTAND, 6MWT, TTRW endpoints” value in data set [1] (vamorolone 6 mg/kg/day vs prednisone 0.75 mg/kg/day) is “no statistically significant differences”. In addition, the “clinically relevant psychiatric events, subjects” value in data set [2] is on record as “no vamorolone-treated subjects”. Also, the “moderate/severe behavior problems, subjects” value in data set [2] (male, human, 24 weeks) is recorded as 1.7%. The “Bone Age difference to Chronologic Age, mean (SD)” value in data set [3] (n = 39) is listed as −1.1 (1.2), yr. In addition, the “Bone Age difference to Chronologic Age, mean (SD)” value in data set [3] (n = 39, listed as vamorolone) is on record as −1.1 yr. Also, in data set [3] (setting [4]), the “PODCI transfer and basic mobility, change from baseline (SD)” value is recorded as −4.38±22.68; the “PODCI upper extremity and physical function, change from baseline (SD)” value turned out to be 7.95±12.54. In data set [3] (setting [5]), the “PODCI transfer and basic mobility, 24 months from LTE baseline, mean (SD)” value is given as 81.4 (17.5), n = 18; the “PODCI transfer and basic mobility, LTE baseline, mean (SD)” value is reported as 86.5 (9.2), n = 19; the “PODCI upper extremity and physical function, 24 months from LTE baseline, mean (SD)” value is on record as 82.3 (10.9), n = 18; the “PODCI upper extremity and physical function, LTE baseline, mean (SD)” value was 75.3 (15.1), n = 18. In addition, in data set [3] (n = 39, chronologic age 8.0 (1.0) yr), the “LTE Month 24 Bone Age by wrist x-ray, mean (SD)” value is reported as 6.8 (1.4), n = 39 yr.
